DBAASP
Values after ≈ are worked out from the molar mass of the structure shown. Values belong to the compound of their own block, whether it stands above or below them.

Legend:
Assay in all cases: ≥ marks a high value that may be exact or a test limit, other limits are often not marked, values filed in µg/mL are converted to µM
[1] = test system: Staphylococcus sp. BCRC 10451
Vibrio vulnificus 204 = test system: Vibrio vulnificus 204
Vibrio alginolyticus = test system: Vibrio alginolyticus
[2] = test system: Staphylococcus aureus BCRC 10780
Streptococcus agalactiae = test system: Streptococcus agalactiae
[3] = test system: Streptococcus pneumoniae BCRC 10794
[4] = test system: Vibrio harveyi BCRC 13812
Pseudomonas aeruginosa = test system: Pseudomonas aeruginosa
Staphylococcus aureus = test system: Staphylococcus aureus
[5] = test system: Micrococcus luteus BCRC 11034
Escherichia coli DL7 = test system: Escherichia coli DL7
[6] = test system: Klebsiella aerogenes ATCC 13048
[7] = test system: Staphylococcus epidermidis ATCC 12228
Bacillus subtilis PS832 = test system: Bacillus subtilis PS832
[8] = test system: Escherichia coli ATCC 25922
[9] = test system: Pseudomonas aeruginosa ATCC 27853
[10] = test system: Candida albicans ATCC 200955
[11] = test system: Enterococcus faecium ATCC 700221
[12] = test system: Staphylococcus aureus ATCC 33591
Candida krusei ATCC 6258 = test system: Candida krusei ATCC 6258
[13] = test system: Candida parapsilosis ATCC 22019
[14] = test system: Cryptococcus neoformans ATCC 90012
[15] = test system: Candida albicans ATCC 90028
[16] = test system: Staphylococcus aureus ATCC 25923
[17] = test system: Escherichia coli ATCC 35218
[18] = test system: Staphylococcus aureus ATCC 25325
[19] = test system: Staphylococcus aureus ATCC 25023
Vibrio cholerae non-O1 = test system: Vibrio cholerae non-O1
Vibrio cholerae non-O139 = test system: Vibrio cholerae non-O139
[20] = test system: Salmonella enterica subsp. enterica serovar Typhi DMST 22842
[21] = test system: Cronobacter sakazakii DPC 6440
[22] = test system: Listeria monocytogenes LO28

Compound: CC[C@H](C)[C@H](NC(=O)[C@H](CCCCN)NC(=O)[C@@H]1CCCN1C(=O)[C@@H](NC(=O)[C@H](CC(C)C)NC(=O)[C@H](C)NC(=O)[C@H](Cc1ccccc1)NC(=O)[C@H](Cc1ccccc1)NC(=O)CNC(C)=O)[C@@H](C)CC)C(=O)N[C@H](C(=O)N[C@@H](CO)C(=O)N[C@@H](CO)C(=O)N1CCC[C@H]1C(=O)N[C@@H](CC(C)C)C(=O)N[C@@H](Cc1ccccc1)C(=O)N[C@@H](CCCCN)C(=O)N[C@H](C(=O)N[C@@H](CC(C)C)C(=O)N[C@@H](CC(C)C)C(=O)N[C@@H](CO)C(=O)N[C@@H](C)C(=O)N[C@H](C(=O)NCC(=O)N[C@@H](CO)C(=O)N[C@@H](C)C(=O)N[C@@H](CC(C)C)C(=O)N[C@@H](CO)C(N)=O)C(C)C)[C@@H](C)O)[C@@H](C)CC [GFFALIPKIISSPLFKTLLSAVGSALS]
MIC [1]: 2.25 µM (≈ 6.34 µg/mL)
MIC (Vibrio vulnificus 204): 18 µM (≈ 50.7 µg/mL)
MIC (Vibrio alginolyticus): 4.5 µM (≈ 12.7 µg/mL)
MIC [2]: 18 µM (≈ 50.7 µg/mL)
MIC (Streptococcus agalactiae): 18 µM (≈ 50.7 µg/mL)
MIC [3]: 18 µM (≈ 50.7 µg/mL)
MIC [4]: 4.5 µM (≈ 12.7 µg/mL)
MIC (Pseudomonas aeruginosa): 4.5 µM (≈ 12.7 µg/mL)
MIC (Staphylococcus aureus): 4.5 µM (≈ 12.7 µg/mL)
MIC [5]: 9 µM (≈ 25.4 µg/mL)

Compound: CC[C@H](C)[C@H](NC(=O)[C@H](CCCN=C(N)N)NC(=O)[C@H](CCCCN)NC(=O)[C@H](CC(C)C)NC(=O)[C@H](CC(C)C)NC(=O)CNC(=O)[C@H](Cc1cnc[nH]1)NC(=O)CNC(=O)CN)C(=O)N[C@@H](CCCCN)C(=O)N[C@H](C(=O)N[C@@H](CC(C)C)C(=O)N[C@@H](CC(C)C)C(N)=O)[C@@H](C)O [GGHGLLKRIKTLL]
MIC (Escherichia coli DL7): 4 µM (≈ 5.62 µg/mL)
MIC [6]: ≥ 32 µM
MIC [7]: 8 µM (≈ 11.2 µg/mL)
MIC (Bacillus subtilis PS832): 2 µM (≈ 2.81 µg/mL)

Compound: CC[C@H](C)[C@H](NC(=O)[C@H](CCCCN)NC(=O)[C@H](CCCCN)NC(=O)[C@H](CC(C)C)NC(=O)[C@H](CC(C)C)NC(=O)CN)C(=O)N[C@@H](CCCCN)C(=O)N[C@@H](CCCCN)C(=O)N[C@@H](CC(C)C)C(=O)N[C@@H](CC(C)C)C(N)=O [GLLKKIKKLL]
MIC [8]: 25 µM (≈ 28.8 µg/mL)
MIC [9]: 28.4 µM (≈ 32.7 µg/mL)
MIC [10]: 28.4 µM (≈ 32.7 µg/mL)
MIC [11]: ≥ 56.9 µM
MIC [12]: ≥ 256 µM

Compound: CC(C)C[C@H](NC(=O)[C@H](C)NC(=O)[C@H](C)NC(=O)[C@H](CCCCN)NC(=O)CNC(=O)[C@@H](NC(=O)[C@H](Cc1cnc[nH]1)NC(=O)[C@H](CCCCN)NC(=O)CNC(=O)[C@@H](NC(=O)[C@H](Cc1cnc[nH]1)NC(=O)[C@H](C)NC(=O)[C@H](C)NC(=O)[C@H](CCCCN)NC(=O)[C@@H](N)CCCCN)C(C)C)C(C)C)C(=O)O [KKAAHVGKHVGKAAL]
MIC [17]: 16.1 µM (≈ 24.4 µg/mL)
MIC [9]: 29.5 µM (≈ 44.7 µg/mL)
MIC [18]: 20.2 µM (≈ 30.6 µg/mL)

Now from value to compound, other results behind:

MIC [8]: 4 µM (≈ 9.16 µg/mL)
MIC (Candida krusei ATCC 6258): 8 µM (≈ 18.3 µg/mL)
MIC [13]: 4 µM (≈ 9.16 µg/mL)
MIC [9]: 8 µM (≈ 18.3 µg/mL)
MIC [14]: 8 µM (≈ 18.3 µg/mL)
MIC [15]: 8 µM (≈ 18.3 µg/mL)
MIC [16]: 1 µM (≈ 2.29 µg/mL)
Compound: CC[C@H](C)[C@H](NC(=O)[C@H](Cc1ccccc1)NC(=O)[C@H](CC(N)=O)NC(=O)[C@H](CCCCN)NC(=O)[C@H](C)NC(=O)[C@@H](NC(=O)[C@H](CC(N)=O)NC(=O)[C@H](Cc1ccccc1)NC(=O)[C@H](C)NC(=O)[C@H](C)NC(=O)[C@H](CCCCN)NC(=O)CNC(=O)[C@@H](NC(=O)[C@H](CCCCN)NC(=O)[C@H](CCCCN)NC(=O)[C@H](C)NC(=O)[C@@H](NC(=O)[C@H](CC(=O)O)NC(=O)[C@H](CC(C)C)NC(=O)[C@H](Cc1c[nH]c2ccccc12)NC(=O)CN)C(C)C)[C@@H](C)CC)C(C)C)C(N)=O [GWLDVAKKIGKAAFNVAKNFI]

MIC [19]: 25.6 µM (≈ 32 µg/mL)
Compound: CC(C)C[C@H](NC(=O)[C@H](CCCN=C(N)N)NC(=O)[C@H](CC(C)C)NC(=O)[C@H](CC(C)C)NC(=O)[C@H](CC(C)C)NC(=O)[C@H](CC(C)C)NC(=O)[C@H](CC(C)C)NC(=O)[C@H](CCCCN)NC(=O)[C@H](CCCN=C(N)N)NC(=O)[C@@H](N)CC(C)C)C(N)=O [LRKLLLLLRL]

MIC [7]: > 46.8 µM
MIC [20]: ≥ 46.8 µM
MIC [16]: > 46.8 µM
Compound: NC(=O)[C@H](Cc1c[nH]c2ccccc12)NC(=O)[C@H](Cc1c[nH]c2ccccc12)NC(=O)[C@H](Cc1c[nH]c2ccccc12)NC(=O)[C@H](CCCN=C(N)N)NC(=O)[C@H](CCCN=C(N)N)NC(=O)[C@H](Cc1c[nH]c2ccccc12)NC(=O)[C@H](Cc1c[nH]c2ccccc12)NC(=O)[C@H](CCCN=C(N)N)NC(=O)[C@H](Cc1c[nH]c2ccccc12)NC(=O)[C@H](Cc1c[nH]c2ccccc12)NC(=O)[C@@H](N)CCCN=C(N)N [RWWRWWRRWWW]
MIC (Vibrio cholerae non-O1): ≥ 46.8 µM
MIC (Vibrio cholerae non-O139): ≥ 46.8 µM

MIC [21]: ≥ 39.1 µM
MIC [22]: 19.5 µM (≈ 36.6 µg/mL)
Compound: CC[C@H](C)[C@H](NC(=O)[C@@H](N)Cc1c[nH]c2ccccc12)C(=O)N[C@@H](CCC(N)=O)C(=O)N1CCC[C@H]1C(=O)N[C@@H](CCCCN)C(=O)N[C@H](C(=O)N[C@@H](CCCCN)C(=O)N[C@H](C(=O)N[C@H](C(=O)N1CCC[C@H]1C(=O)N[C@@H](Cc1ccc(O)cc1)C(=O)N[C@@H](C)C(=O)N[C@@H](CCCN=C(N)N)C(=O)N[C@@H](Cc1ccc(O)cc1)C(=O)N[C@@H](CC(C)C)C(=O)O)[C@@H](C)CC)C(C)C)[C@@H](C)O [WIQPKTKVIPYARYL]
